Source: ChEMBL document CHEMBL2169755, “A Divergent SAR Study Allows Optimization of a Potent 5-HT2c Inhibitor to a Promising Antimalarial Scaffold” (ACS Med Chem Lett, 2012)
Converted amounts (≈) assume the structure as drawn. The source made the active and inactive calls. No cut-off for these calls is given here.

Legend:
[1] = system: Plasmodium falciparum; experiment: microbe, parasite or virus in culture; conditions: 3D7 A
Description: Antiplasmodial activity against Plasmodium falciparum 3D7A assessed as inhibition of [3H]hypoxanthine incorporation incubated for 24 hrs prior to [3H]hypoxanthine addition measured after 24 hrs by beta scintillation counting

[2] = system: Plasmodium falciparum; experiment: Antiplasmodial activity against Plasmodium falciparum Dd2 assessed as inhibition of [3H]hypoxanthine incorporation incubated for 24 hrs prior to [3H]hypoxanthine addition measured after 24 hrs by beta scintillation counting; format: functional, organism-based
[3] = molecular target: T1, 5-hydroxytryptamine receptor 2C (Homo sapiens, UniProt P28335); experiment: Inhibition of human 5HT2c receptor expressed in CHO-K1 cells assessed as inhibition of 5HT-induced calcium influx measured up to 30 secs by aequorin luminescence assay; format: functional, cell-based
T1 sequence (P28335 whole entry): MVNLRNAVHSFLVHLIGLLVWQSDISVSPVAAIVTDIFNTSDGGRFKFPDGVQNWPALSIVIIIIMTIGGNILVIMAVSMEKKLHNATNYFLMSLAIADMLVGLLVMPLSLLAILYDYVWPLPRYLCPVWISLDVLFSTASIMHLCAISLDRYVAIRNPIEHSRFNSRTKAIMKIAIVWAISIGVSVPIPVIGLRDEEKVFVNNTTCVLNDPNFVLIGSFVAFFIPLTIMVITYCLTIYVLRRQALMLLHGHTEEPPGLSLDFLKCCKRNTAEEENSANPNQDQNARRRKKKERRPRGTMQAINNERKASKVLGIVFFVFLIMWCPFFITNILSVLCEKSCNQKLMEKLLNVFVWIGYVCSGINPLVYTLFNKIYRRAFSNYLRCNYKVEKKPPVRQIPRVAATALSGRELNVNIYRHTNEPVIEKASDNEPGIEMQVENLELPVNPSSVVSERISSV

[4] = system: Liver; experiment: Intrinsic clearance in mouse liver microsomes at 0.5 uM by HPLC analysis; format: ADME, Microsome
[5] = system: Liver microsomes; experiment: Intrinsic clearance in human liver microsomes at 0.5 uM by HPLC analysis; format: ADME, Microsome
[6] = system: Plasmodium falciparum; experiment: Antiplasmodial activity against Plasmodium falciparum assessed as pyknotic phenotype after 24 hrs by Giemsa-staining method; format: functional, organism-based
[7] = Plasma protein binding in mouse at 1 ug/mL by equilibrium dialysis method; format: ADME, cell-free; conditions: read-out: PPB (converted)
[8] = molecular target: Cytochrome P450 2C9 (Homo sapiens, UniProt P11712); experiment: Inhibition of human CYP2C9 using 7-methoxy-4-triflouromethylcoumarin-3-acetic acid as substrate incubated for 30 mins prior to substrate addition measured up to 10 mins by fluorimetry; format: ADME
Sequence of Cytochrome P450 2C9 (P11712 whole entry): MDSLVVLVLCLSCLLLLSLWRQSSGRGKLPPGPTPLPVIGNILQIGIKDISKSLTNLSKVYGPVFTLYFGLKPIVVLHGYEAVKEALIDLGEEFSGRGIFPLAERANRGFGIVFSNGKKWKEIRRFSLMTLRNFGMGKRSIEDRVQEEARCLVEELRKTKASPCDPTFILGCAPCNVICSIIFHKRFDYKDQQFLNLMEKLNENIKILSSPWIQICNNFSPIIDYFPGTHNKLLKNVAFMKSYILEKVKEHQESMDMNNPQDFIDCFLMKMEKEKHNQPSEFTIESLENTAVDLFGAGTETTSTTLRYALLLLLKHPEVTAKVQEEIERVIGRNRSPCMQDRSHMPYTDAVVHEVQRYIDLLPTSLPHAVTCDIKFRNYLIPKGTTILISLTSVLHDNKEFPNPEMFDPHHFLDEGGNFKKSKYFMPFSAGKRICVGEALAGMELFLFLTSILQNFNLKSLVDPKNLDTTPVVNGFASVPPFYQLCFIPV

[9] = molecular target: Cytochrome P450 2D6 (Homo sapiens, UniProt P10635); experiment: Inhibition of human CYP2D6 using 4-methylaminomethyl-7-methoxycoumarin as substrate incubated for 30 mins prior to substrate addition measured up to 10 mins by fluorimetry; format: ADME
Sequence of Cytochrome P450 2D6 (P10635 whole entry): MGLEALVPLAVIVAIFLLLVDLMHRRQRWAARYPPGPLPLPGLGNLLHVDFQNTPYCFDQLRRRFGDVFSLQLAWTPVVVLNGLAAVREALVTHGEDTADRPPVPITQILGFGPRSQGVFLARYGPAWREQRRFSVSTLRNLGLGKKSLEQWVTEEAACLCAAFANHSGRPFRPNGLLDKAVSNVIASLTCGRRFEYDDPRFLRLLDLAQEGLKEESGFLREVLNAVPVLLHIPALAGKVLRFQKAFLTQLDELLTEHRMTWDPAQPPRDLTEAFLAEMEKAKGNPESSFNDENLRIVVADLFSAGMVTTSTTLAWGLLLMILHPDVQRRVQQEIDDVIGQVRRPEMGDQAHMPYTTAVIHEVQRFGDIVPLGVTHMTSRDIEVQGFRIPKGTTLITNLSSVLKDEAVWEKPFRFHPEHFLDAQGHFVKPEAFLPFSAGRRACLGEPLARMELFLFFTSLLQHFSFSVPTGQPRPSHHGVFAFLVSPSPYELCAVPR

[10] = molecular target: Cytochrome P450 3A4 (Homo sapiens, UniProt P08684); experiment: Inhibition of human CYP3A4 using 7-benzyloxyquinoline as substrate incubated for 30 mins prior to substrate addition measured up to 10 mins by fluorimetry; format: ADME
Sequence of Cytochrome P450 3A4 (P08684 whole entry): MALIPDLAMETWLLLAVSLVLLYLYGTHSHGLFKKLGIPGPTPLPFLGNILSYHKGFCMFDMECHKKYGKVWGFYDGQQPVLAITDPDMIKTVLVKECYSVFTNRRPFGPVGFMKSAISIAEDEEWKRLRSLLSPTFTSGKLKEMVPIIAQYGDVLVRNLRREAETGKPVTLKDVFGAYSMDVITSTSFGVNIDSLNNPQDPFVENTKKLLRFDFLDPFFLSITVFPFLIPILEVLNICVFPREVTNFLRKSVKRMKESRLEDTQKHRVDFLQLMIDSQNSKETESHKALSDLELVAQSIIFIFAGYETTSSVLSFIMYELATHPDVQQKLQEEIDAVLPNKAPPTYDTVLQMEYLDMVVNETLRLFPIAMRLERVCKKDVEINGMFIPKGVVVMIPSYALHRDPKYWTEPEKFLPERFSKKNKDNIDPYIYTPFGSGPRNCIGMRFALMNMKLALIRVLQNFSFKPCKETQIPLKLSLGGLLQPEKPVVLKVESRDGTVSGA

[11] = molecular target: Cytochrome P450 2C19 (Homo sapiens, UniProt P33261); experiment: Inhibition of human CYP2C19 using 3-butyryl-7-methoxycoumarin as substrate incubated for 30 mins prior to substrate addition measured up to 10 mins by fluorimetry; format: ADME
Sequence of Cytochrome P450 2C19 (P33261 whole entry): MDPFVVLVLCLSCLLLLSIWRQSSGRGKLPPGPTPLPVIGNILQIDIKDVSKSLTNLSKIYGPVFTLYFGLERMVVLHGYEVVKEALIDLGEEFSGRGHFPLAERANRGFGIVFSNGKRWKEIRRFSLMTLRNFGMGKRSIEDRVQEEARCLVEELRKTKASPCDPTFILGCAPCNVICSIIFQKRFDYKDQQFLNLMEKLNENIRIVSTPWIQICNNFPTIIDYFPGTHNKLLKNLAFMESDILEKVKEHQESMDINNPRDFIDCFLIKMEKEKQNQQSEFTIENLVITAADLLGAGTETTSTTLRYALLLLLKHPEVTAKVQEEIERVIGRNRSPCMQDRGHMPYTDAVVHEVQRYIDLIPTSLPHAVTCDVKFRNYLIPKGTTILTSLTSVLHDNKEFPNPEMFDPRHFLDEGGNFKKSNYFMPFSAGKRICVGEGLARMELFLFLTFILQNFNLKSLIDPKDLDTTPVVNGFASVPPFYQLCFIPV

[12] = molecular target: Voltage-gated inwardly rectifying potassium channel KCNH2 (Homo sapiens, UniProt Q12809); experiment: Displacement of Cy3b-tagged dofetilide from human ERG expressed in CHO cells by fluorescence polarization assay
Sequence of Voltage-gated inwardly rectifying potassium channel KCNH2 (Q12809 whole entry): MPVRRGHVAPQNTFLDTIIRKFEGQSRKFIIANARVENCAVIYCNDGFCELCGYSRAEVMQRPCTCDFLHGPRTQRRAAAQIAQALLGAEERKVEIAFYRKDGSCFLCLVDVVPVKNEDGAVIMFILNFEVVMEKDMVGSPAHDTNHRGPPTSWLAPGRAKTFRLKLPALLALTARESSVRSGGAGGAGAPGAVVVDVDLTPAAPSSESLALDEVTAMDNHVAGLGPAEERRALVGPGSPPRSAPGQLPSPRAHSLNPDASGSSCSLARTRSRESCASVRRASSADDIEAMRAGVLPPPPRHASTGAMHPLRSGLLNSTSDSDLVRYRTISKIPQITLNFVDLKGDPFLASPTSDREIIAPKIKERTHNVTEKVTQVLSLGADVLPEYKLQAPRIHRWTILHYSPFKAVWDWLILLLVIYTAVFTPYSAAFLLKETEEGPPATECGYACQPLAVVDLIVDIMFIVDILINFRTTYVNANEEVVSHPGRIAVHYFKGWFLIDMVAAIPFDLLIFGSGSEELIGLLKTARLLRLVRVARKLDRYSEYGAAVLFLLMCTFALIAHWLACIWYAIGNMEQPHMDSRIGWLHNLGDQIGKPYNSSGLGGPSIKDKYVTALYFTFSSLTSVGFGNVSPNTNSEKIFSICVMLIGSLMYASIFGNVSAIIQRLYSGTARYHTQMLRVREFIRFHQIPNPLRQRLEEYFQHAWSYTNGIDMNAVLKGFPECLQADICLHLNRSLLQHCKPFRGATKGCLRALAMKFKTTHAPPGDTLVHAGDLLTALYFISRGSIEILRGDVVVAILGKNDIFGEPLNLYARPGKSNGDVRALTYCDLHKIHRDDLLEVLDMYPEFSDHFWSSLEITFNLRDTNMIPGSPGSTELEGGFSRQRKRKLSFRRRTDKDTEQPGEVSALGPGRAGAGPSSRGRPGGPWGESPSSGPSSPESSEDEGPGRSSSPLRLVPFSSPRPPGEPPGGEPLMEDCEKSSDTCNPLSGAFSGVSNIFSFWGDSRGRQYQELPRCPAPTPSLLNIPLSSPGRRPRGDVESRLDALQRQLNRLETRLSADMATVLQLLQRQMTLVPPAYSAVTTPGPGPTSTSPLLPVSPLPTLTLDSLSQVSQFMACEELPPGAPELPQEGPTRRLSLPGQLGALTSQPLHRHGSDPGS

[13] = Chromatographic hydrophobicity index of the compound at pH 2; format: physicochemical
[14] = Chromatographic hydrophobicity index of the compound at pH 7.4; format: physicochemical
[15] = Chromatographic hydrophobicity index of the compound at pH 10.5; format: physicochemical
[16] = Equilibrium solubility of the compound in phosphate buffer saline after 24 hrs by LC-MS analysis at pH 7.4; format: physicochemical
[17] = Equilibrium solubility of the compound in fasted state simulated intestinal fluid after 24 hrs by LC-MS analysis at pH 6.8; format: physicochemical
[18] = Equilibrium solubility of the compound in fed state simulated intestinal fluid after 24 hrs by LC-MS analysis at pH 5; format: physicochemical
[19] = system: Plasmodium falciparum; experiment: Antiplasmodial activity against Plasmodium falciparum 3D7A assessed as inhibition of [3H]hypoxanthine incorporation after 96 hrs by beta scintillation counting; format: functional, organism-based; conditions: 3D7 A
[20] = system: Plasmodium falciparum; experiment: Antiplasmodial activity against Plasmodium falciparum assessed as pyknotic phenotype at 10-fold IC50 after 24 hrs by Giemsa-staining method; format: functional, organism-based
[21] = system: Plasmodium falciparum; experiment: Antiplasmodial activity against Plasmodium falciparum 3D7A assessed as inhibition of [3H]hypoxanthine incorporation after 72 hrs by beta scintillation counting; format: functional, organism-based; conditions: 3D7 A
[22] = Equilibrium solubility of the compound in simulated gastric fluid after 24 hrs by LC-MS analysis at pH1.2; format: physicochemical; conditions: pH 1.2
[23] = system: Plasmodium falciparum; experiment: Selectivity ratio of IC50 for Plasmodium falciparum Dd2 to IC50 for Plasmodium falciparum HB3; format: functional
[24] = system: Plasmodium falciparum; experiment: Antiplasmodial activity against Plasmodium falciparum HB3 assessed as inhibition of [3H]hypoxanthine incorporation incubated for 24 hrs prior to [3H]hypoxanthine addition measured after 24 hrs by beta scintillation counting; format: functional, organism-based
[25] = Cytotoxicity against human HepG2 cells after 48 hrs by resazurin reduction assay; format: cell-based; conditions: read-out: TC50
[26] = Cytotoxicity against mouse L1210 cells after 48 hrs by resazurin reduction assay; format: cell-based; conditions: read-out: TC50
[27] = Cytotoxicity against mouse Neuro2a cells after 48 hrs by resazurin reduction assay; format: cell-based, N2a; conditions: read-out: TC50
[28] = Cytotoxicity against rat H9c2(2-1) cells after 48 hrs by resazurin reduction assay; format: cell-based; conditions: read-out: TC50
[29] = Cytotoxicity against MDCK cells after 48 hrs by resazurin reduction assay; format: cell-based, Canis lupus familiaris; conditions: dog, read-out: TC50
[30] = molecular target: Albumin (Homo sapiens, UniProt P02768); experiment: Binding affinity to human serum albumin by HPLC analysis; format: ADME; conditions: isolated protein
Sequence of Albumin (P02768 whole entry): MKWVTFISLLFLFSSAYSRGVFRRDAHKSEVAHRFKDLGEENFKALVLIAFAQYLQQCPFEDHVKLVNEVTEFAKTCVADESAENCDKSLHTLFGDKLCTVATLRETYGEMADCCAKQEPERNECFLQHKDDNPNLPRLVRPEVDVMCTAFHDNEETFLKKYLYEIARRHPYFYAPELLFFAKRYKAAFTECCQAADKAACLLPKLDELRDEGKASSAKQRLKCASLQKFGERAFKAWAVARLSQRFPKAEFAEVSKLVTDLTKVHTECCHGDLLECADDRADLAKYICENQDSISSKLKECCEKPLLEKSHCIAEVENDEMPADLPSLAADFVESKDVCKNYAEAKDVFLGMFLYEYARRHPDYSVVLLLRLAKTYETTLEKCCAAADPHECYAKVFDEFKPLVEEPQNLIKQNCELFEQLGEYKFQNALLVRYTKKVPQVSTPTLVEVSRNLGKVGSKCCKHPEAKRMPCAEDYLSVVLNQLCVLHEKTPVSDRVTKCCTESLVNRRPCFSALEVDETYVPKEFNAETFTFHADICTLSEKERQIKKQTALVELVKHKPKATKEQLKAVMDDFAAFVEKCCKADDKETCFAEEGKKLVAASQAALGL

[31] = system: Plasmodium berghei; experiment: Antimalarial activity against Plasmodium berghei ANKA infected in CD1 mouse assessed as inhibition of parasitemia at 50 mg/kg, po administered QD for 2 days measured after 4 days by YOYO1-based flow cytometric analysis relative to vehicle-treated control; format: functional
[32] = system: Plasmodium berghei; experiment: Antimalarial activity against Plasmodium berghei ANKA assessed as reduction in viable parasites at 10 times IC50 after 72 hrs; format: functional, organism-based

## COc1cc2c(cc1C(F)(F)F)N(C(=O)Nc1cc(OC(F)(F)F)cc(-c3cc[nH]c3)c1)CC2
[1]
  IC50: 1070 nM

## COc1cc2c(cc1C(F)(F)F)N(C(=O)Nc1cc(Br)cc(-c3cccnc3)c1)CC2
[2]
  IC50: 1100 nM
[3]
  IC50: 10 nM
[1]
  IC50: 160 nM

## Cc1ccc2c(c1)CCN2C(=O)Nc1cc(OC(F)(F)F)cc(-c2cccnc2)c1
[2]
  IC50: 40 nM
[1]
  IC50: 10 nM

## COc1ccc2c(c1)N(C(=O)Nc1cc(OC(F)(F)F)cc(-c3cccnc3)c1)CC2
[3]
  IC50: 120 nM
[1]
  IC50: 90 nM

## COc1cc2c(cc1C(F)(F)F)N(C(=O)Nc1cc(OC(F)(F)F)cc(-c3ccc(C)nc3)c1)CC2
[2]
  IC50: 800 nM
[1]
  IC50: 290 nM

## O=C(Nc1cc(OC(F)(F)F)cc(-c2cccnc2)c1)N1CCc2ccccc21
[2]
  IC50: 20 nM
[3]
  IC50: 1250 nM
[1]
  IC50: 10 nM

## COc1cc2c(cc1C(F)(F)F)N(C(=O)Nc1cc(-c3cccnc3)cc(C(F)(F)F)c1)CC2
[2]
  IC50: 810 nM
[3]
  IC50: 10 nM
[1]
  IC50: 140 nM

## O=C(Nc1cc(OC(F)(F)F)cc(-c2cccnc2)c1)N1CCc2ccc(F)cc21
[2]
  IC50: 10 nM
[3]
  IC50: 600 nM
[4]
  CLH: 2.1 mL/min/g
[5]
  CLH: 0.5 mL/min/g
[1]
  IC50: 10 nM

## COc1cc2c(cc1C(F)(F)F)N(C(=O)Nc1cc(OC(F)(F)F)cc(-c3ccccc3)c1)CC2
[1]
  IC50: 2260 nM

## O=C(Nc1cc(OC(F)(F)F)cc(-c2cccnc2)c1)N1CCc2ccc(Cl)cc21
[1]
  IC50: 150 nM

## O=C(Nc1cc(OC(F)(F)F)cc(-c2cccnc2)c1)N1CCc2cc(C(F)(F)F)ccc21
[1]
  IC50: 20 nM

## COc1cc2c(cc1C(F)(F)F)N(C(=O)Nc1cc(Br)cc(OC(F)(F)F)c1)CC2
[3]
  IC50: 390 nM
[1]
  IC50: 4840 nM

## O=C(Nc1cc(OC(F)(F)F)cc(-c2cccnc2)c1)N1CCc2cccc(F)c21
[2]
  IC50: 1070 nM
[3]
  IC50: > 40000 nM
[1]
  IC50: 410 nM

## COc1cc2c(cc1C(F)(F)F)N(C(=O)Nc1cccc(OC(F)(F)F)c1)CC2
[1]
  IC50: > 5000 nM

## O=C(Nc1cc(OC(F)(F)F)cc(-c2cccnc2)c1)N1CCc2ccc(Br)cc21
[2]
  IC50: 640 nM
[1]
  IC50: 190 nM

## COc1cc2c(cc1C(F)(F)F)N(C(=O)Nc1cccc(-c3cccnc3)c1)CC2
[3]
  IC50: 7 nM
[1]
  IC50: 4450 nM

## COc1cc2c(cc1C(F)(F)F)N(C(=O)Nc1cc(C)cc(OC(F)(F)F)c1)CC2
[1]
  IC50: > 5000 nM

## C[C@@H]1CC[C@H]2[C@@H](C)C(=O)O[C@@H]3O[C@@]4(C)CC[C@@H]1[C@]32OO4 [ARTEMISININ]
[6]
  Activity: Active
[1]
  IC50: 20 nM

## CN1CCN(c2ccc3c(c2)N(C(=O)Nc2cc(OC(F)(F)F)cc(-c4cccnc4)c2)CC3)CC1
[3]
  IC50: > 40000 nM
[1]
  IC50: 490 nM

## COc1cc2c(cc1C(F)(F)F)N(C(=O)Nc1cc(F)cc(-c3cccnc3)c1)CC2
[2]
  IC50: 2120 nM
[3]
  IC50: 10 nM
[1]
  IC50: 430 nM

## O=C(Nc1cc(OC(F)(F)F)cc(-c2cccnc2)c1)N1CCc2cc(F)ccc21
[1]
  IC50: 10 nM

## Cc1ccc2c(c1)N(C(=O)Nc1cc(OC(F)(F)F)cc(-c3cccnc3)c1)CC2
[1]
  IC50: 30 nM

## CCc1nc(N)nc(N)c1-c1ccc(Cl)cc1 [PYRIMETHAMINE]
[2]
  IC50: > 40000 nM
[1]
  IC50: 20 nM

## COc1cc2c(cc1C(F)(F)F)N(C(=O)Nc1cc(OC(F)(F)F)cc(-c3cccnc3)c1)CC2
[7]
  fraction unbound at 1 ug/mL: 0.002
[8]
  IC50: 2000 nM
[9]
  IC50: 13000 nM
[10]
  IC50: > 50000 nM
[11]
  IC50: > 50000 nM
[12]
  Activity: > 16 µM
[13]
  CHI: 3.09
[14]
  CHI: 4.22
[15]
  CHI: 4.18
[16]
  solubility thermodynamic at 24 h: < 0.1 µg/mL
[17]
  solubility thermodynamic at 24 h: < 0.1 µg/mL
[18]
  solubility thermodynamic at 24 h: 16.7 µg/mL (≈ 33.6 µM)
[19]
  IC50: 25 nM
[20]
  Activity: Active
[21]
  IC50: 40 nM
[22]
  solubility thermodynamic at 24 h: 1550 µg/mL (≈ 3120 µM)
[23]
  Ratio IC50: >10
[24]
  IC50: 90 nM
[2]
  IC50: > 1000 nM
[3]
  IC50: 50 nM
[25]
  CC50 at 48 h: 7000 nM
[26]
  CC50 at 48 h: 3200 nM
[27]
  CC50 at 48 h: > 12500 nM
[28]
  CC50 at 48 h: > 12500 nM
[29]
  CC50 at 48 h: > 12500 nM
[4]
  CLH: < 0.3 mL/min/g
[5]
  CLH: < 0.3 mL/min/g
[30]
  Activity: 97.8%

## CCN(CC)CCCC(C)Nc1ccnc2cc(Cl)ccc12 (stereo unspecified)
[6]
  Activity: Active

## Cc1cc2c(cc1Cl)N(C(=O)Nc1cc(OC(F)(F)F)cc(-c3cccnc3)c1)CC2
[2]
  IC50: 140 nM
[1]
  IC50: 20 nM

## O=C(Nc1cc(OC(F)(F)F)cc(-c2cccnc2)c1)N1CCc2ccc(CO)cc21
[3]
  IC50: 180 nM
[1]
  IC50: 400 nM

## CN1CCN(c2cc3c(cc2Cl)CCN3C(=O)Nc2cc(OC(F)(F)F)cc(-c3cccnc3)c2)CC1
[31]
  inhibition in vivo at 50 mg/kg: 35%
[32]
  Activity: Active
[2]
  IC50: 210 nM
[3]
  IC50: 10000 nM
[1]
  IC50: 140 nM

## COc1cc2c(cc1C(F)(F)F)N(C(=O)Nc1cc(OC(F)(F)F)cc(-c3cncnc3)c1)CC2
[2]
  IC50: > 1000 nM
[1]
  IC50: 30 nM
